Laboratory results from patent US20220306986A1, “NON-INVASIVE METHODS FOR SELECTIVELY ENRICHING PLURIPOTENT CELLS” (MEMORIAL SLOAN-KETTERING CANCER CENTER, priority 2019, published 2022).

Columns and labels:
Format in all cases: cell-based, mouse
[1] = system: ESCs; assay: Glutamine deprivation: growth curves, viability and colony formation; settings: DM-αKG 4 mM
Procedure: For glutamine deprivation experiments in mouse ESCs, cells were initially plated in standard S/L medium as described above. The following day, cells were washed with PBS and then cultured in experimental medium containing a 1:1 mix of glutamine-free DMEM (Gibco 11960-051) and glutamine-free Neurobasal medium (Gibco 21103-049) including 10% dialyzed FBS, 2-mercaptoethanol, and LIF as described above and containing (“+Q”) or lacking (“−Q”) L-glutamine (2 mM) as indicated. When indicated, dimethyl-α-ketoglutarate (Sigma 349631) dissolved in DMSO was added to a final concentration of 4 mM. […]
ESCs were seeded at a density of 30,000-40,000 cells per well of a 12-well plate. The following day, three wells of each line were counted to determine the starting cell number. […] Cells were counted on the indicated days thereafter using a Beckman Multisizer 4e with a cell volume gate of 400-10,000 fL. […]
Evaluation of cell viability and Nanog-GFP expression. […] Cells were evaluated for GFP and DAPI on either a LSRFortessa or LSR-II machine and FACSDiva software ([…] Dickinson). […] Nanog-GFP expression was measured by GFP mean fluorescence intensity and quantified using FlowJo v9.0. […]

[2] = system: Nanog-GFP ESCs; assay: Nanog-GFP expression by flow cytometry after pulse treatment; settings: 24 h pulse in glutamine-containing S/L medium, 24 h recovery; FIG. 7E-7F
Procedure: For transient glutamine withdrawal (“pulse”) experiments, cells were initially plated in standard S/L medium as described above. The following day, cells were washed with PBS and then changed to experimental medium containing a 1:1 mix of glutamine-free DMEM and glutamine-free Neurobasal medium including 10% dialyzed FBS, 2-mercaptoethanol, LIF, and containing (“Ctrl”) or lacking (“Pulse”) L-glutamine as indicated. 24 hours later, cells were washed with PBS and then returned to glutamine-replete medium (“Recover”). 24 hours later, cells were subjected to either image analysis, flow cytometry, or plated for colony formation assays as indicated. For glutamine pulse experiments in human ESCs, cells were initially plated at a density of 300,000 cells/well in a tissue-culture treated polystyrene 12-well plate coated with vitronectin (Thermo Fisher Scientific, A14700) in E8 medium (Thermo Fisher Scientific, A1517001) containing 10 uM ROCK inhibitor Y-27632 (Selleck Chemicals S1049). […] Cells were evaluated for GFP and DAPI on either a LSRFortessa or LSR-II machine and FACSDiva software ([…] Dickinson). […] Nanog-GFP expression was measured by GFP mean fluorescence intensity and quantified using FlowJo v9.0. […]

[3] = system: ESCs; assay: Colony formation assay (alkaline phosphatase staining) after pulse treatment
Procedure: For transient glutamine withdrawal (“pulse”) experiments, cells were initially plated in standard S/L medium as described above. The following day, cells were washed with PBS and then changed to experimental medium containing a 1:1 mix of glutamine-free DMEM and glutamine-free Neurobasal medium including 10% dialyzed FBS, 2-mercaptoethanol, LIF, and containing (“Ctrl”) or lacking (“Pulse”) L-glutamine as indicated. 24 hours later, cells were washed with PBS and then returned to glutamine-replete medium (“Recover”). 24 hours later, cells were subjected to either image analysis, flow cytometry, or plated for colony formation assays as indicated. For glutamine pulse experiments in human ESCs, cells were initially plated at a density of 300,000 cells/well in a tissue-culture treated polystyrene 12-well plate coated with vitronectin (Thermo Fisher Scientific, A14700) in E8 medium (Thermo Fisher Scientific, A1517001) containing 10 uM ROCK inhibitor Y-27632 (Selleck Chemicals S1049). 24 hrs after plating, medium was changed to modified E8 medium containing: DMEM high glucose without glutamine (Thermo Fisher 11960044), 10.7 mg/L Transferrin (Sigma T0665), 64 mg/L L-Ascorbic Acid (Sigma A890), 14 ug/L Sodium Selenite (Sigma S5261), 543 mg/L Sodium Bicarbonate (Research Products International 144558), 19.4 mg/L insulin (Sigma 19278), 100 ug/L bFGF (EMD Millipore GF003AF), 2 ug/L TGFβ1 (Peprotech 10021), and 2 mM L-glutamine. After 24 hrs of culture in modified E8 medium, medium was changed to modified E8 medium containing 2 mM or 0 mM L-glutamine for 24 hrs. All cells were then changed to modified E8 medium containing 2 mM L-glutamine and cultured for 24 hrs before harvest for analysis. […] For ESC colony formation assays, colonies were scored manually in a blinded fashion. For reprogramming experiments, alkaline-phosphatase colonies were scored automatically using ImageJ (NIH). Briefly, images of each well were binarized using the Default function and particles greater than 8 pixels with a circularity of 0.7-1.0 were counted.

benefit of the glutamine withdrawal pulse on self-renewal (colony formation) ([3]; 4 mM DM-αKG added during 24 h glutamine withdrawal, FIG. 3H): abrogated the benefit of the pulse
self-renewal capacity of the ESC population after pulsed treatment (colony formation) ([3]; 24 h pulse, 24 h recovery before plating, FIG. 3G, 7G): no durable effect
SMILES: COC(=O)CCC(=O)C(=O)OC [cell-permeable αKG, dimethyl-α-ketoglutarate]
survival and proliferation in the absence of glutamine (population doublings) ([1]; 48 h glutamine-free medium, FIG. 2G, 2H): capable of rescuing survival and proliferation in the absence of glutamine
proliferation, viability and self-renewal of ESCs under glutamine withdrawal ([1]; S/L culture, FIG. 2A, 6A-6B): sufficient to compensate for glutamine withdrawal
Nanog-GFP expression after pulsed treatment [2]: transiently increase Nanog-GFP expression
